Where “and” joins values, the source holds several entries; their conditions need not be identical. Identical values can stand only once.
What was measured:
Type in all cases: in vivo, human
statin induced fatigue = assay: Pilot clinical study: Fatigue Impact Scale (FIS) in statin patients given magnesium orotate; set-up: FIS—Fatigue Impact Scale: scale not given here; conditions: for FIS—Fatigue Impact Scale: 1600 mg/day magnesium orotate
From the text: (§1) Table 1 outlines data for seventeen patients (numbered #i-#xvii) undergoing statin therapy for treatment of hypercholesterolemia and who had reported suffering from varying levels of muscular pain and fatigue. This study is ongoing but the results below follow the study in relation to these patients for varying periods, from day 0 (T0d) up to a maximum of 56 days (T56d).
(§2) The design of the clinical trial involves a blood sample being taken from the patients prior to commencing medication administration and then on four further occasions during the 13 week trial, at around days 13-16, days 26-30, days 35-60 and finally at days 80-90. Patients were also required to submit answers to a questionnaire on approximately a weekly basis to enable patients to be scored for pain using the McGill Pain Questionnaire (Melzack, R., 1975 “The McGill Pain Questionnaire: Major Properties and Scoring Methods”. Pain 1:277-299, the disclosure of which is included herein in its entirety by way of reference) scales for Pain Rating Index (PRI) and Present Pain Intensity (PPI). In the PRI index, which comprises two scores, higher scores indicate increasing levels of pain. In the PPI index present pain is given a score of 0 to 5, where 0 represents no pain and 5 represents excruciating pain. Patients were also scored prior to commencement of the trial medication for fatigue using the Fatigue Impact Scale (Fisk, J. D. et al, 1994, “Measuring the functional impact of fatigue: Initial Validation of the Fatigue Impact Scale”, Clinical Infectious Disease, 18 (Suppl 1):S79-83, the disclosure of which is included herein in its entirety by way of reference). On the first week at the clinic, prior to commencement of the trial medication, details of the patients' statin medication were recorded and daily doses noted.
(§3) After the pre-trial medication blood samples and questionnaires were taken (T0d) patients commenced taking daily doses of 1600 mg of magnesium orotate, administered as 2×400 mg tablets, morning and evening.
(§4) A preliminary statistical analysis of the results of the PRI, PPI and FIS tests for the patients on the trial as a group are presented in Table 3, below.

[1] = Pilot clinical study: monitoring of blood serum components
From the text: as §2, §3
Blood samples were taken prior to commencement of trial medication (T0d) and after approximately 14 (T14d), 28 (T28d), 42 (T42d) and 56 (T56d) days to determine individual to baseline levels of uridine (μg/ml) arising from magnesium orotate (MgOr) administration, to thereby monitor patient compliance. Blood samples taken were also used to determine creatine kinase concentration (CK) (units/L), gamma glutaryl transferase (GGT) concentration, aspartate amino transferase (AST) concentration and alanine aminotransferase concentration (ALT) (units/L), as well as serum lipid levels including total cholesterol concentration, high density lipoprotein (HDL-CHOL) concentration, low density lipoprotein (LDL-CHOL) concentration, tryglyceride (TRIG) concentration and levels of other serum components routinely tested for including magnesium ion concentration.

[2] = system: statin induced muscle pain; assay: Pilot clinical study: McGill Pain Questionnaire scores (PRI, PPI) in statin patients given magnesium orotate; set-up: key to PRI—Pain Rating Index: McGill PRI; higher scores = more pain; conditions: for PPI—Present Pain Intensity: score 0 to 5; for PPI—Present Pain Intensity / PRI—Pain Rating Index: 1600 mg/day magnesium orotate
From the text: as §1, §2, §3, §4

[3] = most patients undergoing the magnesium orotate therapy
[4] = patients within the normal ranges at commencement of the trial

magnesium orotate
FIS—Fatigue Impact Scale (statin induced fatigue; T7d, baseline in T0d): 0 and 19 and 9 and 23 and 88 and 7 and 24 and 17 and 101 and 5 and 47 and 77 and 44 and 40 and 6 and 21 | FIS—Fatigue Impact Scale (statin induced fatigue; T14d): 0 and 38 and 25 and 86 (2×) and 9 (3×) and 32 and 49 and 3 and 48 and 31 and 11 and 21 | FIS—Fatigue Impact Scale (statin induced fatigue; T21d): 0 and 19 and 18 and 39 and 92 and 4 and 30 and 8 and 91 and 10 and 67 and 21 and 3 | FIS—Fatigue Impact Scale (statin induced fatigue; T28d): 0 and 22 and 51 and 1 and 7 and 77 and 9 and 50 | FIS—Fatigue Impact Scale (statin induced fatigue; T35d): 0 and 22 | FIS—Fatigue Impact Scale (statin induced fatigue; T42d): 0 and 13 | FIS—Fatigue Impact Scale (statin induced fatigue; T49d): 0 | FIS—Fatigue Impact Scale (statin induced fatigue; T56d): 0 | FIS fatigue score (statin induced fatigue; [3]): significant improvements | serum uridine concentration ([1]; all patients on the trial, data not presented): increase | GGT serum concentration ([1]; day 43, only patient significantly outside normal range at commencement, dropped from 96 U/L at day 0): 83 U/L | AST serum concentration ([1]; day 43, same patient, dropped from 56 U/L at commencement): 42 U/L | ALT serum concentration ([1]; day 43, same patient, dropped from 105 U/L at commencement): 74 U/L | alanine amino transferase (ALT) serum concentration [1, 4]: no significant impact | aspartate amino transferase (AST) serum concentration [1, 4]: no significant impact | gamma glutaryl transferase (GGT) serum concentration [1, 4]: no significant impact | serum creatine kinase concentration (CK) [1, 4]: no significant impact | PPI—Present Pain Intensity ([2]; T7d, baseline in T0d): 2 (4×) and 1 (9×) and 0 (3×) | PRI—Pain Rating Index ([2]; T14d): 9 (2×) and 8 and 28 and 16 and 23 and 42 and 4 and 7 and 15 and 37 and 2 and 3 and 0 and 6 | PPI—Present Pain Intensity ([2]; T14d): 2 (6×) and 1 (9×) | PRI—Pain Rating Index ([2]; T21d): 9 (2×) and 8 (2×) and 24 and 13 and 15 and 42 and 2 and 35 and 0 and 3 and 12 | PPI—Present Pain Intensity ([2]; T21d): 2 (5×) and 1 (7×) and 0 | PRI—Pain Rating Index ([2]; T28d): 2 (3×) and 3 (2×) and 11 and 4 and 0 | PPI—Present Pain Intensity ([2]; T28d): 1 (4×) and 0 (3×) and 2 | PRI—Pain Rating Index ([2]; T35d): 0 | PPI—Present Pain Intensity ([2]; T35d): 0 | PRI—Pain Rating Index ([2]; T42d): 0 | PPI—Present Pain Intensity ([2]; T42d): 0 | PRI—Pain Rating Index ([2]; T49d): 0 | PPI—Present Pain Intensity ([2]; T49d): 0 | PRI—Pain Rating Index ([2]; T56d): 0 | PPI—Present Pain Intensity ([2]; T56d): 0 | PRI and PPI pain scores [2, 3]: significant improvements
